Test results published in patent publication US20250332173A1, “COMPOUNDS AND METHODS FOR MODULATING NUCLEIC ACID SPLICING” (REMIX THERAPEUTICS INC., priority 2021, published 2025).
Read-outs that look alike come from different tables or passages of the source.

Key:
[1] = tested on: Target C; experiment: RT-qPCR splicing assay panel, Target C canonical junction (CJ) mRNA; format: cell-based, human; conditions: Homo sapiens
Outline: (§1)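 K562/A673 cells, 11-pt 3-fold compound titration from 10 uM final, DMSO ≤0.25%, 24 h 37 °C 5% CO2; lyse (DNase I or Igepal/Tris buffer pH 7.4); RT-qPCR for CJ isoform vs housekeeping gene (GAPDH/GUSB/PPIA).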

[2] = tested on: K562 (human chronic myelogenous leukemia) cells; experiment: Cell Titer Glo 2.0 cell viability assay; format: cell-based; conditions: Homo sapiens, K562, 72 h, K562 cells, 72 hours, Cell Titer Glo 2.0; read-out: K562 GI50
[3] = tested on: SMN2 mRNA; experiment: RT-qPCR splicing assay, SMN2 canonical junction (CJ) mRNA; format: cell-based, human; conditions: Homo sapiens
Outline: as §1

[4] = tested on: MYB mRNA; experiment: RT-qPCR splicing assay, MYB canonical junction (CJ) and alternative junction (AJ) mRNA; format: cell-based, human; conditions: Homo sapiens; for AC50: increase in MYB alternative junction (AJ) mRNA, read-out: MYB AJ AC50
Outline: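 Following a 24-hour incubation of A673 or K562 cells with serially diluted compound (3-fold steps, highest final 10 uM), the lysates undergo cDNA synthesis plus qPCR. Canonical and alternative junctions are each quantified against PPIA, GAPDH or GUSB.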

[5] = canonical junction qPCR panel, Table 5, read-out: Target C (decrease in CJ mRNA levels, IC50)
[6] = canonical junction qPCR panel, Table 5, read-out: SMN2 (decrease in CJ mRNA levels, IC50)
[7] = canonical junction qPCR panel, Table 5, read-out: MYB (decrease in CJ mRNA levels, IC50)
[8] = decrease in MYB canonical junction (CJ) mRNA, RT-qPCR, read-out: MYB CJ IC50
[9] = Table 5 panel, canonical junction qPCR, compound concentration having 50% response in CJ decrease, read-out: Target C IC50 (decrease in CJ mRNA levels)
[10] = Table 5 panel, canonical junction qPCR, compound concentration having 50% response in CJ decrease, read-out: SMN2 IC50 (decrease in CJ mRNA levels)
[11] = Table 5 panel, canonical junction qPCR, compound concentration having 50% response in CJ decrease, read-out: MYB IC50 (decrease in CJ mRNA levels)

Row | Compound | IC50 [1, 5] | GI50 [2] | IC50 [3, 6] | IC50 [4, 7] | IC50 [4, 8] | IC50 [1, 9] | IC50 [3, 10] | IC50 [4, 11] | AC50 ([4]; RT-qPCR)
1 | CN1CCC(N(C)c2ccc3ncn(-c4cc(F)c5nn(C)cc5c4)c(=O)c3c2)CC1 [Compound 2199] | > 10000 nM | > 10000 nM | > 10000 nM | > 10000 nM | > 10000 nM | – | – | – | > 10000 nM
2 | Cc1cc(-c2ccc3ncn(C4CCN(C)CC4)c(=O)c3c2)cc2cn(C)nc12 [Compound 2170] | > 10000 nM | > 10000 nM | > 10000 nM | > 10000 nM | > 10000 nM | – | – | – | > 10000 nM
3 | Cc1cc(-c2cc(F)c3c(=O)n(C4CCN(C)CC4)cnc3c2)cc2cn(C)nc12 [Compound 233] | – | 100 to 1000 nM | – | – | 100 to 1000 nM | 1000 to 10000 nM | < 100 nM | 100 to 1000 nM | 100 to 1000 nM
4 | Cc1cn2cc(-c3ccc4c(c3)CCN(C3CCNCC3)C4=O)ncc2n1 [Compound 224] | – | > 10000 nM | – | – | 1000 to 10000 nM | > 10000 nM | 100 to 1000 nM | > 10000 nM | > 10000 nM
5 | Cn1cc2cc(-n3cnc4ccc(N5CCNCC5)cc4c3=O)cc(F)c2n1 [Compound 2196] | > 10000 nM | > 10000 nM | > 10000 nM | > 10000 nM | > 10000 nM | – | – | – | > 10000 nM
6 | Cn1cc2ccc(-n3cnc4ccc(NC5CCNCC5)cc4c3=O)cc2n1 [Compound 2164] | 1000 to 10000 nM | > 10000 nM | > 10000 nM | > 10000 nM | > 10000 nM | – | – | – | > 10000 nM
7 | Cc1c(O)c(-c2ncc3c(=O)n([C@H]4CC[C@H](N(C)C)CC4)ccc3n2)cc2cn(C)nc12 [Compound 1459, 6-((1r,4r)-4-(dimethylamino)cyclohexyl)-2-(6-hydroxy-2,7-dimethyl-2H-indazol-5-yl)pyrido[4,3-d]pyrimidin-5(6H)-one] | 100 to 1000 nM | < 100 nM | < 100 nM | < 100 nM | 100 to 1000 nM | – | – | – | < 100 nM
8 | Cc1cn2cc(-n3cnc4ccc(N(C)C5CCNCC5)cc4c3=O)cc(F)c2n1 [Compound 2200] | > 10000 nM | > 10000 nM | > 10000 nM | > 10000 nM | > 10000 nM | – | – | – | > 10000 nM
9 | Cc1c(O)c(-c2ccc3c(=O)n(C4CCNC4)cc(C)c3n2)cc2cn(C)nc12 (stereo not drawn) [Compound 1467] | > 10000 nM | 100 to 1000 nM | < 100 nM | 100 to 1000 nM | 100 to 1000 nM | – | – | – | 100 to 1000 nM
10 | Cc1cn2cc(-c3cc(F)c4c(=O)n(C5CCN(C)CC5)cnc4c3)cc(F)c2n1 [Compound 231, 5-fluoro-7-{8-fluoro-2-methylimidazo[1,2-a]pyridin-6-yl}-3-(1-methylpiperidin-4-yl)quinazolin-4-one] | – | 100 to 1000 nM | – | – | 100 to 1000 nM | 1000 to 10000 nM | < 100 nM | 100 to 1000 nM | 100 to 1000 nM
11 | Cc1cc(-c2ccc3c(=O)[nH]c(N4CCNCC4)nc3c2)cc2cn(C)nc12 [Compound 2211] | > 10000 nM | > 10000 nM | > 10000 nM | > 10000 nM | > 10000 nM | – | – | – | > 10000 nM
12 | Cc1nc2c(F)cc(-c3ccc4c(c3)CCN(C3CCNCC3)C4=O)cc2o1 [Compound 215] | – | 1000 to 10000 nM | – | – | 1000 to 10000 nM | 1000 to 10000 nM | < 100 nM | 1000 to 10000 nM | 1000 to 10000 nM
13 | Cn1cc2cc(-c3ncc4c(=O)n(C56CCC(N)(CC5)C6)ccc4n3)c(O)c(F)c2n1 [Compound 1468] | 100 to 1000 nM | < 100 nM | < 100 nM | < 100 nM | < 100 nM | – | – | – | < 100 nM
14 | CN(c1ccc2ncn(-c3cc(F)c4nn(C)cc4c3)c(=O)c2c1)C1CCNCC1 [Compound 2198] | > 10000 nM | > 10000 nM | > 10000 nM | > 10000 nM | > 10000 nM | – | – | – | > 10000 nM
15 | Cc1cn2cc(-n3cnc4cc(N5CCNCC5)ccc4c3=O)cc(F)c2n1 [Compound 228] | – | 100 to 1000 nM | – | – | 100 to 1000 nM | 100 to 1000 nM | 100 to 1000 nM | 100 to 1000 nM | 100 to 1000 nM
16 | Cn1cc2cc(-c3ncc4c(=O)n(C56CCC(N)(CC5)C6)ccc4n3)c(O)cc2n1 [Compound 1470] | 1000 to 10000 nM | 100 to 1000 nM | < 100 nM | 100 to 1000 nM | 100 to 1000 nM | – | – | – | 100 to 1000 nM
17 | Cn1cc2cc(-c3ncc4c(=O)n([C@H]5CCNC5)ccc4n3)c(O)c(F)c2n1 [Compound 1465] | 100 to 1000 nM | 100 to 1000 nM | < 100 nM | 100 to 1000 nM | 100 to 1000 nM | – | – | – | 100 to 1000 nM
18 | Cc1cn2cc(-c3ccc4c(=O)n(C5CCNCC5)cnc4c3)cc(F)c2n1 [Compound 205] | – | 100 to 1000 nM | – | – | 100 to 1000 nM | 100 to 1000 nM | < 100 nM | 100 to 1000 nM | 100 to 1000 nM
19 | Cc1cn2cc(-n3cnc4ccc(N5CCN(C)CC5)cc4c3=O)cc(F)c2n1 [Compound 2197] | 1000 to 10000 nM | 1000 to 10000 nM | 1000 to 10000 nM | 1000 to 10000 nM | 1000 to 10000 nM | – | – | – | 1000 to 10000 nM

The next lines start with results.

Row | IC50 [1, 5] | GI50 [2] | IC50 [3, 6] | IC50 [4, 7] | IC50 [4, 8] | IC50 [1, 9] | IC50 [3, 10] | IC50 [4, 11] | Compound | AC50 ([4]; RT-qPCR)
20 | 100 to 1000 nM | 1000 to 10000 nM | < 100 nM | 100 to 1000 nM | 100 to 1000 nM | – | – | – | Cc1cn2nc(-c3ccc4c(=O)n(C5CCN(CCO)C6(CC6)C5)ncc4n3)cc(C)c2n1 (stereo not drawn) [Compound 1541, 2-(2,8-dimethylimidazo[1,2-b]pyridazin-6-yl)-6-[4-(2-hydroxyethyl)-4-azaspiro[2.5]octan-7-yl]pyrido-[2,3-d]pyridazin-5-one] | 100 to 1000 nM
21 | 100 to 1000 nM | 100 to 1000 nM | < 100 nM | 100 to 1000 nM | 100 to 1000 nM | – | – | – | Cc1cn2nc(-c3ccc4c(=O)n(C5CC(C)N[C@H](C)C5)ncc4n3)cc(C)c2n1 (stereo in doubt) [Compound 1536, 2-(2,8-dimethylimidazo[1,2-b]pyridazin-6-yl)-6-[(2S,6R)-2,6-dimethyl-4-piperidyl]pyrido[2,3-d]pyridazin-5-one] | 100 to 1000 nM
22 | – | 1000 to 10000 nM | – | – | 1000 to 10000 nM | 1000 to 10000 nM | 100 to 1000 nM | 1000 to 10000 nM | Cc1cn2cc(-c3ccc4c(=O)n(C5CCN(C)CC5)cnc4c3)cc(F)c2n1 [Compound 207] | 1000 to 10000 nM
23 | < 100 nM | 100 to 1000 nM | < 100 nM | 100 to 1000 nM | < 100 nM | – | – | – | Cc1cn2nc(-c3ccc4c(=O)n([C@@H]5CCN(C)C6(CC6)C5)ncc4n3)cc(C)c2n1 [Compound 1534] | 100 to 1000 nM
24 | – | 1000 to 10000 nM | – | – | 1000 to 10000 nM | > 10000 nM | 100 to 1000 nM | 1000 to 10000 nM | Cc1cn2cc(-c3ccc4c(=O)n(C5CCN(C)CC5)cnc4c3F)cc(F)c2n1 [Compound 227] | 1000 to 10000 nM
25 | 100 to 1000 nM | 100 to 1000 nM | < 100 nM | 100 to 1000 nM | 100 to 1000 nM | – | – | – | Cc1cn2nc(-c3ccc4c(=O)n([C@H]5CCN(C)C6(CC6)C5)ncc4n3)cc(C)c2n1 [Compound 1533] | 100 to 1000 nM
26 | > 10000 nM | > 10000 nM | > 10000 nM | > 10000 nM | > 10000 nM | – | – | – | Cc1cn2nc(-n3cnc4ccc(N5CCNCC5)cc4c3=O)cc(C)c2n1 [Compound 2201] | > 10000 nM
27 | – | 100 to 1000 nM | – | – | < 100 nM | 100 to 1000 nM | < 100 nM | 100 to 1000 nM | Cc1cn2cc(-c3ccc4c(=O)n(C5CCNC6(CC6)C5)cnc4c3)cc(F)c2n1 (stereo not drawn) [Compound 236] | 100 to 1000 nM
28 | – | 100 to 1000 nM | – | – | < 100 nM | 100 to 1000 nM | < 100 nM | < 100 nM | Cc1cn2nc(-c3cc(F)c4c(=O)n(C5CCN(C)CC5)cnc4c3)cc(C)c2n1 [Compound 242] | < 100 nM
29 | – | 100 to 1000 nM | – | – | 100 to 1000 nM | 1000 to 10000 nM | < 100 nM | 100 to 1000 nM | Cc1cn2cc(-c3ccc4c(=O)n(C5CCNC(C)(C)C5)cnc4c3)cc(F)c2n1 (stereo not drawn) [Compound 237] | 100 to 1000 nM
30 | 1000 to 10000 nM | 1000 to 10000 nM | 100 to 1000 nM | 1000 to 10000 nM | 1000 to 10000 nM | – | – | – | Cc1cn2nc(-c3ccc4c(=O)n(C5CCN(CCF)C6(CC6)C5)ncc4n3)cc(C)c2n1 (stereo not drawn) [Compound 1542, 2-(2,8-dimethylimidazo[1,2-b]pyridazin-6-yl)-6-[4-(2-fluoroethyl)-4-azaspiro[2.5]octan-7-1]pyrido[2,3-d]pyridazin-5-one] | 1000 to 10000 nM
31 | – | 1000 to 10000 nM | – | – | 1000 to 10000 nM | 1000 to 10000 nM | 1000 to 10000 nM | 1000 to 10000 nM | Cc1cn2nc(-n3cnc4cc(N5CCNCC5)ccc4c3=O)cc(C)c2n1 [Compound 241] | 1000 to 10000 nM
